These results are taken from patent US11331299B2, “Medicinal use of serrulatane diterpenes” (The University of Sydney, priority 2016, dated 2022).

SMILES strings stand for the structures. Where two headings read alike, the source gives them in different places.

One series has as its target HDAC5 (h) (Homo sapiens, UniProt Q9UQL6). As to the kind of experiment: Epigenetic enzyme assay, Histone deacetylase (HDACs). Format: biochemical. To be noted: read-out: % Inhibition of Control Values.
The subject of the next series is L3MBTL1 MBT domain. Nature of the series: Epigenetic binding assay, MBT domain. The conditions noted are these: 10 μM.
The next series has as its target T1, JMJD2E (h) (Homo sapiens, UniProt B2RXH2).
T1 sequence (B2RXH2 1-506): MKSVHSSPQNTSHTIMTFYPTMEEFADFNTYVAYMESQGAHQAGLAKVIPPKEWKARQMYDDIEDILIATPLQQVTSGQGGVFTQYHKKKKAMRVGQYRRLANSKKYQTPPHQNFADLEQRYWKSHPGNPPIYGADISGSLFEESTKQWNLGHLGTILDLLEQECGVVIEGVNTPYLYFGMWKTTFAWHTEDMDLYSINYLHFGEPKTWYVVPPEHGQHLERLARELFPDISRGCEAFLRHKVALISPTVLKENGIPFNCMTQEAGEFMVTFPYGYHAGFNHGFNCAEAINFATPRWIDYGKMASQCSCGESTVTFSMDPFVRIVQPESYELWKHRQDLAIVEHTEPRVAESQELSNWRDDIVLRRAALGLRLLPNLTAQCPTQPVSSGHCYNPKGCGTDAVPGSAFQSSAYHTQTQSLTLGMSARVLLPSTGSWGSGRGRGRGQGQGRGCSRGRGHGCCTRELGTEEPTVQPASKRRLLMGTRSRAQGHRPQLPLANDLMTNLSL
As to the kind of experiment: Epigenetic enzyme assay, Demethylases (KDMs). To be noted: for inhibition at 10 µM: read-out: % Inhibition of Control Values. Format: biochemical.

The target of the next series is T2, CECR2 (h) bromodomain (Homo sapiens, UniProt Q9BXF3).
T2 construct: CECR2(h) bromodomain
Nature of the series: Epigenetic binding assay, Bromodomain. The conditions noted are these: for inhibition at 10 µM: read-out: % Inhibition of Control Specific Binding.

The target of the next series is ASH1L (Homo sapiens, UniProt Q9NR48). Nature of the series: Epigenetic enzyme assay, Methyltransferases (MTs). In kind it is biochemical. The conditions noted are these: for inhibition at 10 µM: read-out: % Inhibition of Control Values.
In a further series the target is CYP3A (Homo sapiens, UniProt P08684). Nature of the series: Cytochrome P450 Inhibition (CYP panel). In kind it is in vitro ADME. To be noted: probe testosterone; for inhibition at 1 µM: human liver microsomes; for inhibition at 10 µM: liver microsomes. A general note: Liver microsomes are a subcellular fraction often used to study metabolism.
The next series concerns the target T3, SETD7 (h) (Homo sapiens, UniProt Q8WTS6).
T3 sequence (Q8WTS6 1-366): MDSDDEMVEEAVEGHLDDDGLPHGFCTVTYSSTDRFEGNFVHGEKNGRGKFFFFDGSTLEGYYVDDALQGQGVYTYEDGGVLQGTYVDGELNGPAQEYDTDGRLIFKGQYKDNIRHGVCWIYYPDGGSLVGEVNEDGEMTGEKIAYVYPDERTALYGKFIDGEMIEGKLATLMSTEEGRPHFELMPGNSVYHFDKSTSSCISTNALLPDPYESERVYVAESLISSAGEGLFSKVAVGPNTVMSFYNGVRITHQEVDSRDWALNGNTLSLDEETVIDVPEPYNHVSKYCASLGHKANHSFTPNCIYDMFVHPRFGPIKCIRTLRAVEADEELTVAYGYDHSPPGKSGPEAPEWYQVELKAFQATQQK
Nature of the series: Epigenetic enzyme assay, Methyltransferases (MTs). Format: biochemical. To be noted: for inhibition at 10 µM: read-out: % Inhibition of Control Values.

In a further series the target is USP 14 (h) (Homo sapiens, UniProt P54578). Nature of the series: Epigenetic enzyme assay, Ubiquitin modifying enzymes. In kind it is biochemical. To be noted: 10 μM; read-out: % Inhibition of Control Values.
The next series addresses HDAC2 (h) (Homo sapiens, UniProt Q92769). Nature of the series: Epigenetic enzyme assay, Histone deacetylase (HDACs). In kind it is biochemical. To be noted: read-out: % Inhibition of Control Values.
Another series has as its system Angiotensin, AT1/ACE. Nature of the series: Angiotensin, AT1/ACE, guinea pig ileum (isotonic). Also on record: species or system Dunkin Hartley Guinea pig. The conditions noted are these: 10 μM; assay year 2015. On the procedure:
The in vitro pharmacological studies were conducted by Eurofins PanLab (Taiwan) using the parameters shown in Table 13 with respect to appropriate literature references.

The subject of another series is Hs 852.T. As to the kind of experiment: OncoPanel cell proliferation assay (10-day). In kind it is cell-based, human. To be noted: for EC50 / GI50 / IC50: Homo sapiens, Skin (Melanoma); for EC50: read-out: Cell Count EC50; for GI50: read-out: Cell Count GI50; for IC50: read-out: Cell Count IC50.
The next series addresses DNMT3B/DNMT3L (h) (Homo sapiens, UniProt Q9UBC3). Nature of the series: Epigenetic enzyme assay, DNA methyltransferases (DNMTs). The conditions noted are these: for inhibition at 10 µM: read-out: % Inhibition of Control Values. In kind it is biochemical.
The next series concerns the target T4, CBX2 (h) chromodomain (Homo sapiens, UniProt Q14781).
T4 construct: Recognition and specificity determinants of the human cbx chromodomains; Eurofins CEREP (France), contract laboratory
T4 sequence (Q14781 12-70 limits assumed): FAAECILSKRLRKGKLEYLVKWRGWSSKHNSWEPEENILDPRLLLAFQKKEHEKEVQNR
Nature of the series: Epigenetic binding assay, Chromodomain. To be noted: read-out: % Inhibition of Control Specific Binding.

A further series concerns the target T5, BRDT(1) (h) bromodomain (Homo sapiens, UniProt Q58F21).
T5 construct: Bromodomain; Eurofins CEREP (France), contract laboratory
Nature of the series: Epigenetic binding assay, Bromodomain. To be noted: read-out: % Inhibition of Control Specific Binding.

A further series addresses T6, BAZ2B (h) bromodomain (Homo sapiens, UniProt Q9UIF8).
T6 construct: Bromodomain
T6 sequence (Q9UIF8 2060-2164 limits assumed): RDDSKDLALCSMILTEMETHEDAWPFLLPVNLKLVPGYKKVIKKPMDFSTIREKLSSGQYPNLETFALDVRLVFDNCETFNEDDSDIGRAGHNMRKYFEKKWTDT
As to the kind of experiment: Epigenetic binding assay, Bromodomain. To be noted: read-out: % Inhibition of Control Specific Binding.

For the next series, the system named is H3K9 me2. As to the kind of experiment: Cell-based detection methyl modifications. To be noted: read-out: % Inhibition of Control Values.
The subject of another series is H3K9 ac. As to the kind of experiment: Cell-based detection methyl modifications. To be noted: read-out: % Inhibition of Control Values.
Series [1] has as its target T7, Glycine N-methyltransferase (h) (Homo sapiens, UniProt Q14749).
T7 sequence (Q14749 1-295): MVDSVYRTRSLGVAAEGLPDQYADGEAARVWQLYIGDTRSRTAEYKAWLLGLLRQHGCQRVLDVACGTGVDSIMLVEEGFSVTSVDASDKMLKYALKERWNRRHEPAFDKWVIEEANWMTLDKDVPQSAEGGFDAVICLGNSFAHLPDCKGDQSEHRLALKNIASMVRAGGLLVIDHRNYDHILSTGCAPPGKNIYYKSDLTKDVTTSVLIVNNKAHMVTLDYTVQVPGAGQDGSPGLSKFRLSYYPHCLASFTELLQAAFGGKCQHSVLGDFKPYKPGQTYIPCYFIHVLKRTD
Nature of the series: Epigenetic enzyme assay, Small molecule methyltransferases. Format: biochemical. To be noted: read-out: % Inhibition of Control Values.

For a further series, the target named is JARID1A (h) (Homo sapiens, UniProt P29375). Nature of the series: Epigenetic enzyme assay, Demethylases (KDMs). Format: biochemical. The conditions noted are these: for inhibition at 10 µM: read-out: % Inhibition of Control Values.
Where [2] appears, read: CYP3A (testosterone sub.), Human liver microsomes, read-out: % Inhibition of Control Values.

Usually inhibition stands for the change of the read-out against control, counted positive when it falls. As usually defined, the IC50 is the midpoint of a concentration-inhibition curve. In general, EC50 refers to the concentration giving half of the maximal effect. The GI50 is the concentration giving 50% growth inhibition.

T2 sequence (Q9BXF3 434-538 limits assumed): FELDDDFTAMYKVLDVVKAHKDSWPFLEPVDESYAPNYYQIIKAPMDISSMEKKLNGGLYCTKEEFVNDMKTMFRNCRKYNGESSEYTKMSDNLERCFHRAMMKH
Chain of JARID1A (h) (P29375 whole entry): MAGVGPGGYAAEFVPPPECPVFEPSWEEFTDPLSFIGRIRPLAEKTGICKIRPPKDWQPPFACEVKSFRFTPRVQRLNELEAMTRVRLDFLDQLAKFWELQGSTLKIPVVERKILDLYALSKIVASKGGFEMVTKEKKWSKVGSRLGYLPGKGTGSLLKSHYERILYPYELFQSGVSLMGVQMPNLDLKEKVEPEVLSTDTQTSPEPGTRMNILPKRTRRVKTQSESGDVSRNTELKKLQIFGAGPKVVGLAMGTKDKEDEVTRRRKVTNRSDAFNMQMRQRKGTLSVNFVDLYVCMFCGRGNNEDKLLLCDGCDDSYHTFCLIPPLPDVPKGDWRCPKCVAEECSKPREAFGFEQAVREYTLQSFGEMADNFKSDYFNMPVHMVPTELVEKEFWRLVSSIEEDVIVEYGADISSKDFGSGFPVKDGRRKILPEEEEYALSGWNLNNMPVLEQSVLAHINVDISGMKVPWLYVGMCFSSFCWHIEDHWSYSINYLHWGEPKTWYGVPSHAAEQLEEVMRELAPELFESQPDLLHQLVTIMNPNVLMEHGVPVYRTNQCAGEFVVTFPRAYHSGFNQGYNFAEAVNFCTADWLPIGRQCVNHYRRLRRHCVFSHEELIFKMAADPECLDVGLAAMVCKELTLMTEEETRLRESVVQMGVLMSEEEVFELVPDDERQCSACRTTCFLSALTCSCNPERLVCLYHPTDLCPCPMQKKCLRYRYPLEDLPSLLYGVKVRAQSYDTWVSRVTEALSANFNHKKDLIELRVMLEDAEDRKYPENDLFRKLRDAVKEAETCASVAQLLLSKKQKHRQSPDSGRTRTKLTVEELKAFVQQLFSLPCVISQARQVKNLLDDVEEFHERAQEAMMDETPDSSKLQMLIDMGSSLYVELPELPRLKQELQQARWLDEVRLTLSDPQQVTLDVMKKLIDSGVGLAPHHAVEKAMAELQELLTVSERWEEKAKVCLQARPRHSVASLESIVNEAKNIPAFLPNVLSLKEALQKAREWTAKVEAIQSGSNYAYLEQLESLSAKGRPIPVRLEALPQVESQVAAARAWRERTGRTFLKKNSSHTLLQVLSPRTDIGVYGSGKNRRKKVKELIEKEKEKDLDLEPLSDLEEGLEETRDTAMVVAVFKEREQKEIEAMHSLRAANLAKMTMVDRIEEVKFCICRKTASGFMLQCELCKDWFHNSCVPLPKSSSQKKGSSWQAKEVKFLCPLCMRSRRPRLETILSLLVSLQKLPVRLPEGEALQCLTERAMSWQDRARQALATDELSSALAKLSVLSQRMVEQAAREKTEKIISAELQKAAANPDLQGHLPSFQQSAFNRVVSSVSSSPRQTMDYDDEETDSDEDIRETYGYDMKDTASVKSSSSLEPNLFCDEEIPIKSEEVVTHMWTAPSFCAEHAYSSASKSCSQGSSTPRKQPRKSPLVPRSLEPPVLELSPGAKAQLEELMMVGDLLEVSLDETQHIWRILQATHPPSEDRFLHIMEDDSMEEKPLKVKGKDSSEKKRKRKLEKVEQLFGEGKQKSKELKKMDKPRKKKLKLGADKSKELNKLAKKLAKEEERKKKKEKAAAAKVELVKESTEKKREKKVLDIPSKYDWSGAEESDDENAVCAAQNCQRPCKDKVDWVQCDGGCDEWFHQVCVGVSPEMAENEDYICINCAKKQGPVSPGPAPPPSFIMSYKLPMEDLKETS
Chain of CYP3A (P08684 2-503): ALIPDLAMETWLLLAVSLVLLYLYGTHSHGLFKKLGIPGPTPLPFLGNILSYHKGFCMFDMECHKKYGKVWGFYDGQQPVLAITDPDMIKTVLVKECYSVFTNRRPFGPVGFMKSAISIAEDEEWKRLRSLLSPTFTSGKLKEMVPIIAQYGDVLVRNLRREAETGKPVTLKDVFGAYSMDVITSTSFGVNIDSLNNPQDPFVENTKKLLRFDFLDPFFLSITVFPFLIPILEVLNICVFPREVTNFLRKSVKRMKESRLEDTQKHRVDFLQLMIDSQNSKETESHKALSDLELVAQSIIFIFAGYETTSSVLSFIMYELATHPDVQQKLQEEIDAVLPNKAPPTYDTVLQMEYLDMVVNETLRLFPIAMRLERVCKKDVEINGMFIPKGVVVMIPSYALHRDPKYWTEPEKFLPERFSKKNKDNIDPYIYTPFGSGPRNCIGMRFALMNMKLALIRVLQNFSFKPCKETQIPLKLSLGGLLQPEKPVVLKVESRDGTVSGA
Chain of USP 14 (h) (P54578 whole entry): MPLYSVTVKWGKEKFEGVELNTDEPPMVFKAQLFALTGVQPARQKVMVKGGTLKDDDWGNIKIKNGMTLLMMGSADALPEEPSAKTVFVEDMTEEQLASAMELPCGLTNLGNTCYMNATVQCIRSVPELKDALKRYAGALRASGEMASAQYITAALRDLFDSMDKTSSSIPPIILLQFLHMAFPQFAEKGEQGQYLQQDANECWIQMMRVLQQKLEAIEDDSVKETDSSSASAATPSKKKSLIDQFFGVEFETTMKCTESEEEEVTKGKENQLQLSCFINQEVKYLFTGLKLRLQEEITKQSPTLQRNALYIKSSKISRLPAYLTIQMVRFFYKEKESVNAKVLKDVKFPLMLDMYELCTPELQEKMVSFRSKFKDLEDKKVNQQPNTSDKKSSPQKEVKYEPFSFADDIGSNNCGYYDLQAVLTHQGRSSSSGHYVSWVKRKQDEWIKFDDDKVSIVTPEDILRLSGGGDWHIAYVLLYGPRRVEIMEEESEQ
Chain of HDAC2 (h) (Q92769 whole entry): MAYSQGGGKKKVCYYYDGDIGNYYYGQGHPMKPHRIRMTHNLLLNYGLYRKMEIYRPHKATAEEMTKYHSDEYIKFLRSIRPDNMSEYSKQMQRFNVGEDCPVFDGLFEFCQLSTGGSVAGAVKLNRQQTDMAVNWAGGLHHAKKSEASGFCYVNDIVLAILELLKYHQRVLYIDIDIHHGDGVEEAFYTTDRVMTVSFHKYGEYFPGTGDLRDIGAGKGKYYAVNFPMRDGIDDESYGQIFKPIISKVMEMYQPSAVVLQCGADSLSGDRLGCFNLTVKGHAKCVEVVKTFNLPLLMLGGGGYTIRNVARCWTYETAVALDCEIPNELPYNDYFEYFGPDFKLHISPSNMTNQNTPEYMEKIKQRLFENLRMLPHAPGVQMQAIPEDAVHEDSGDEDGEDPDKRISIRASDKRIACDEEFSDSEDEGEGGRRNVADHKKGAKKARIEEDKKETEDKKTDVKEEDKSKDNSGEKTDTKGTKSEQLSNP
Chain of HDAC5 (h) (Q9UQL6 whole entry, the tested form may be a part): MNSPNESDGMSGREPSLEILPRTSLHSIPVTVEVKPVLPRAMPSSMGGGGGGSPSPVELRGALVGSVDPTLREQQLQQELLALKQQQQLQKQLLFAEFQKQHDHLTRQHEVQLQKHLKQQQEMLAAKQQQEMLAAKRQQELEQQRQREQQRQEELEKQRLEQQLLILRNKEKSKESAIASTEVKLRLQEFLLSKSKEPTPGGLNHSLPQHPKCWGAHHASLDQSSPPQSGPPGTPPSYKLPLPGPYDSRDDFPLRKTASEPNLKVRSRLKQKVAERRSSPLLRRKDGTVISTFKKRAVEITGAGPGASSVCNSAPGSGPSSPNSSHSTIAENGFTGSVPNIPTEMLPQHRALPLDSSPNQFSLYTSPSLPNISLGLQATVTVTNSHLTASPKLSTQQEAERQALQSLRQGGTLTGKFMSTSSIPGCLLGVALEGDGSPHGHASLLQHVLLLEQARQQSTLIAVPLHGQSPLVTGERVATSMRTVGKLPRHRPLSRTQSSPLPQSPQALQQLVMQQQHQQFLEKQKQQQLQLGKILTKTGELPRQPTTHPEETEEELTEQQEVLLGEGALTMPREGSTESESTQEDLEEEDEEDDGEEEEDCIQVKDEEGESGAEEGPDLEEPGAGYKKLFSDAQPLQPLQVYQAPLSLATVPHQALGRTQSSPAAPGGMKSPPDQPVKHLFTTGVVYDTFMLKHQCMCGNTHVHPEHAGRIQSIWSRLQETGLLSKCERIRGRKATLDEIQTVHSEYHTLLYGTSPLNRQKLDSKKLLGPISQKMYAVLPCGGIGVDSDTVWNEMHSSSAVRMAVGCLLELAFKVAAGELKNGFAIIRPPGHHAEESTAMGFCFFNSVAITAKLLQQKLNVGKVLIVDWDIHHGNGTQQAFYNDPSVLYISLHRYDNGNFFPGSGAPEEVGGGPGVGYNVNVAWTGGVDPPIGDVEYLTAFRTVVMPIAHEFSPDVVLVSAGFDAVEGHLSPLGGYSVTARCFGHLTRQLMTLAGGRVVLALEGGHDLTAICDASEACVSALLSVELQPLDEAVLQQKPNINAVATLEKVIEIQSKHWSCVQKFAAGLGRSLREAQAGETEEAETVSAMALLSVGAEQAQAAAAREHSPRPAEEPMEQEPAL

For the compound `CC(C)=CCC[C@H](CO)[C@@H]1CC[C@@H](C)c2c1cc(C)c(O)c2O` [Compound 1, 7,8,18-trihydroxyserrulat-14-ene], the inhibition at 10 µM on HDAC5 (h) was -3%; on JMJD2E (h) (10 μM) it was 65%; at CECR2 (h) bromodomain (10 μM), 100%; on ASH1L, 3%; on CYP3A (setting [2]), 77%; at SETD7 (h) it was 12%. The inhibition at 10 µM was determined as 1% at USP 14 (h); 1% on HDAC2 (h); 23% at DNMT3B/DNMT3L (h); 17% at CBX2 (h) chromodomain; 43% on BRDT(1) (h) bromodomain; 58% on BAZ2B (h) bromodomain. The inhibition at 10 µM was 1% with H3K9 me2, 17% in the series with H3K9 ac, 55% in [1] and 64% at JARID1A (h) (10 μM). In addition, the “% Inhibition of Control Specific Binding” value with L3MBTL1 MBT domain is listed as 41%; on CECR2 (h) bromodomain (10 μM), “significant inhibitory activity”. Moreover, the “% Inhibition of Control Values” on JMJD2E (h) (10 μM) and at JARID1A (h) (10 μM) was “significant inhibitory activity” throughout. The IC50 on JMJD2E (h) (Table 11, inhibition/concentration-response curve) was found to be 4.7 µM; on CECR2 (h) bromodomain (Table 9, inhibition/concentration-response curve), 5 µM; with Hs 852.T, 2.56 µM; at JARID1A (h) (Table 11, inhibition/concentration-response curve, read-out: IC50), 9.6 µM. Also, the “inhibition of binding, 1st” value was 99.4 on CECR2 (h) bromodomain (3.0E−05M); 7.3 at CECR2 (h) bromodomain (3.0E−06M); −1.5 on CECR2 (h) bromodomain (3.0E−07M); −0.9 on CECR2 (h) bromodomain (3.0E−08M); 5.9 on CECR2 (h) bromodomain (3.0E−09M). For the same compound, the “inhibition of binding, 2nd” value at CECR2 (h) bromodomain (3.0E−05M) is 99.6; on CECR2 (h) bromodomain (3.0E−06M), 8.6; at CECR2 (h) bromodomain (3.0E−07M), 0.9; on CECR2 (h) bromodomain (3.0E−08M) it was −1.7; at CECR2 (h) bromodomain (3.0E−09M), 2.4. The “inhibition of binding, Mean” value at CECR2 (h) bromodomain (3.0E−05M) is on record as 99.5; on CECR2 (h) bromodomain (3.0E−06M), 7.9; on CECR2 (h) bromodomain (3.0E−07M) it was −0.3; on CECR2 (h) bromodomain (3.0E−08M), −1.3; on CECR2 (h) bromodomain (3.0E−09M), 4.2. For the same compound, the inhibition at 1 µM is 7 to 20% at CYP3A (read-out: % inhibition) and 7% at CYP3A (setting [2]). Further, the “% Control Response, Agonist” value with Angiotensin, AT1/ACE is reported as 0%. Moreover, the “% Control Response, Antagonist” value with Angiotensin, AT1/ACE turned out to be 34%. The “Relative cell count (%) Mean” value stood at 41.6% in the series with Hs 852.T (3.00E+00 microM); 2.7% with Hs 852.T (3.00E+01 microM); 95.3% in the series on Hs 852.T (3.01E−01 microM); 94.5% in the series with Hs 852.T (3.01E−02 microM); 104.5% in the series on Hs 852.T (3.02E−03 microM); 13.1% in the series on Hs 852.T (9.49E+00 microM). The “Relative cell count (%) Mean” value came out at 85.5% in the series with Hs 852.T (9.51E−01 microM), 92.2% in the series with Hs 852.T (9.52E−02 microM), 100.2% in the series on Hs 852.T (9.53E−03 microM) and 104.3% with Hs 852.T (9.55E−04 microM). The EC50 with Hs 852.T was 2.49 µM. In addition, the GI50 in the series with Hs 852.T is 2.42 µM.

In the case of `CC(C)=CCC[C@H](C)[C@@H]1CC[C@@H](C)c2c1cc(C)c(O)c2O` [Compound 4, 7,8-dihydroxyserrulat-14-ene], the inhibition at 1 µM on CYP3A (read-out: % inhibition) was 7 to 20%. Further, on CYP3A (setting [2]), the inhibition at 1 µM turned out to be 20% and the inhibition at 10 µM came to 48%. Further, in the series with Hs 852.T, the EC50 was 12 µM, the GI50 was determined as 11.6 µM and the IC50 was found to be 12 µM.

For `CC(C)=CCC[C@@H]1COc2c(C)cc(O)c3c2[C@H]1CC[C@H]3C` [Compound 3, 5,18-epoxy-8-hydroxyserrulat-14-ene], the inhibition at 10 µM on HDAC5 (h) is -1%; at JMJD2E (h) (10 μM) it was 6%; at CECR2 (h) bromodomain (10 μM) it was 15%; on ASH1L, -54%; at SETD7 (h), -2%; on USP 14 (h) it was -24%. The inhibition at 10 µM was -2% on HDAC2 (h); -20% on DNMT3B/DNMT3L (h); 3% on CBX2 (h) chromodomain; 29% on BRDT(1) (h) bromodomain; 21% on BAZ2B (h) bromodomain; 20% with H3K9 me2. The inhibition at 10 µM was -1% with H3K9 ac, -11% in [1] and 3% on JARID1A (h) (10 μM). For the same compound, the “% Inhibition of Control Specific Binding” value in the series with L3MBTL1 MBT domain turned out to be 59%. The “% Control Response, Agonist” value with Angiotensin, AT1/ACE is 0%. Also, in the series on Angiotensin, AT1/ACE, the “% Control Response, Antagonist” value amounted to 17%.

Take `Nc1ncnc2c1ncn2[C@@H]1O[C@H](CSCC[C@H](N)C(=O)O)[C@@H](O)[C@H]1O` [SAH]: the values for the IC50 on ASH1L (read-out: Reference IC50), on SETD7 (h) (read-out: Reference IC50) and at DNMT3B/DNMT3L (h) (read-out: Reference IC50) were 9.1 µM, 24 µM and 0.045 µM, respectively.
